Structures are written as SMILES. In brackets after ≈: the same amount, converted by molar mass.

We go through seven compounds from patent publication US4492692A, “Cephalosporin derivatives” (Imperial Chemical Industries PLC, priority 1980, dated 1985).

Holding throughout (test): MIC by agar-dilution technique, Jewell and Pearmain agar
What all share (assay type): cell-based

The test system of one assay is E. coli. The note with it: Escherichia coli, Code No. A8, inoculum ~10^5 CFU. The source says:
(§1) The results set out in the following Table are illustrative of the biological activity of the compounds of the present invention. […] The following results are those obtained on a standard in vitro test system using Jewell and Pearmain agar medium. The antibacterial activity is described in terms of the minimum inhibitory concentration (MIC) determined by agar-dilution technique with an inoculum size of ~10^5 CFU.

The subject of the next assay is Ent. cloacae. The note with it: Enterobacter cloacae, Code No. A13, inoculum ~10^5 CFU.
Excerpt: as §1

Another assay has as its system K. aerogenes. The conditions noted are these: Klebsiella aerogenes, Code No. A10, inoculum ~10^5 CFU.
Excerpt: as §1

The subject of a further assay is Proteus mirabilis. The note with it: Code No. A18, inoculum ~10^5 CFU.
Excerpt: as §1

Another assay deals with Ps. aeruginosa. The note with it: Pseudomonas aeruginosa, Code No. A21, inoculum ~10^5 CFU.
Excerpt: as §1

The test system of another assay is Salmonella dublin. The note with it: Salmonella enterica, Code No. A20, inoculum ~10^5 CFU.
Excerpt: as §1

Another assay has as its system Serratia marescens. The note with it: Code No. A16, inoculum ~10^5 CFU.
Excerpt: as §1

Another assay concerns Staph. aureus. The note with it: Staphylococcus aureus, Code No. A6, inoculum ~10^5 CFU.
Excerpt: as §1

A further assay deals with Strep. pyogenes. The note with it: Streptococcus pyogenes, Code No. A1, inoculum ~10^5 CFU.
Excerpt: as §1

On to `CC(=O)OCC1=C(C(=O)O)N2C(=O)[C@@H](Nc3nc(Cc4ccccc4)c[nH]3)[C@H]2SC1` [Example 1, 7-(4-benzylimidazol-2-yl)amino-3-acetoxymethylceph-3-em-4-carboxylic acid], for which the MIC against E. coli is 0.25 µg/mL (≈ 0.583 µM); in the assay on Ent. cloacae, 128 µg/mL (≈ 299 µM); in the assay with K. aerogenes, 1 µg/mL (≈ 2.33 µM); in the assay on Proteus mirabilis, 32 µg/mL (≈ 74.7 µM); against Ps. aeruginosa, greater than 256 µg/mL; against Salmonella dublin, 0.5 µg/mL (≈ 1.17 µM). Besides, the figures for the MIC against Serratia marescens and in the assay with Staph. aureus were 64 µg/mL (≈ 149 µM) and 32 µg/mL (≈ 74.7 µM), respectively.

Regarding `Cc1nnc(SCC2=C(C(=O)O)N3C(=O)[C@@H](Nc4nc(CCNC(=O)C(F)(F)F)c[nH]4)[C@H]3SC2)s1` [Example 4.2, 7-[4-(2-trifluoroacetylaminoethyl)imidazol-2-yl]amino-3-(2-methyl-1,3,4-thiadiazol-5-yl)thiomethylceph-3-em-4-carboxylic acid], the MIC against E. coli was 0.12 µg/mL (≈ 0.218 µM); in the assay on Ent. cloacae, 16 µg/mL (≈ 29.1 µM); with K. aerogenes it was 0.12 µg/mL (≈ 0.218 µM); against Proteus mirabilis it was 16 µg/mL (≈ 29.1 µM); against Ps. aeruginosa, greater than 256 µg/mL; against Salmonella dublin, 0.25 µg/mL (≈ 0.455 µM). Moreover, the MIC in the assay on Serratia marescens is 4 µg/mL (≈ 7.28 µM); in the assay on Staph. aureus, 32 µg/mL (≈ 58.2 µM); in the assay with Strep. pyogenes, 16 µg/mL (≈ 29.1 µM).

In the case of `C=CCc1c[nH]c(N[C@@H]2C(=O)N3C(C(=O)O)=C(CSc4nnnn4C)CS[C@H]23)n1` [Example 6.1, 7-(4-allylimidazol-2-yl)amino-3-(1-methyl-1H-tetrazol-5-yl)thiomethylceph-3-em-4-carboxylic acid], the MIC was 0.016 µg/mL (≈ 0.0368 µM) against E. coli; 16 µg/mL (≈ 36.8 µM) against Ent. cloacae; 0.03 µg/mL (≈ 0.069 µM) in the assay with K. aerogenes; 2 µg/mL (≈ 4.6 µM) with Proteus mirabilis; greater than 256 µg/mL against Ps. aeruginosa; 0.016 µg/mL (≈ 0.0368 µM) against Salmonella dublin. Moreover, the MIC in the assay on Serratia marescens stood at 0.25 µg/mL (≈ 0.575 µM); in the assay on Staph. aureus, 32 µg/mL (≈ 73.6 µM); in the assay with Strep. pyogenes, 8 µg/mL (≈ 18.4 µM).

Take `CNC(=O)OCCCc1c[nH]c(N[C@@H]2C(=O)N3C(C(=O)O)=C(COC(C)=O)CS[C@H]23)n1` [Example 9.2, 7-[4-(3-methylcarbamoyloxypropyl)imidazol-2-yl]amino-3-acetoxymethylceph-3-em-4-carboxylic acid]: the MIC against E. coli was 0.03 µg/mL (≈ 0.0662 µM); against Ent. cloacae, 64 µg/mL (≈ 141 µM); in the assay on K. aerogenes, 0.06 µg/mL (≈ 0.132 µM); against Proteus mirabilis it was 8 µg/mL (≈ 17.6 µM); with Ps. aeruginosa, greater than 256 µg/mL; with Salmonella dublin, 0.06 µg/mL (≈ 0.132 µM). Besides, the MIC with Serratia marescens was found to be 8 µg/mL (≈ 17.6 µM); against Staph. aureus, 64 µg/mL (≈ 141 µM); in the assay with Strep. pyogenes, 32 µg/mL (≈ 70.6 µM).

Consider `O=C(O)C1=C(CSc2c[nH]nn2)CS[C@@H]2[C@H](Nc3nc(CCNC(=O)C(F)(F)F)c[nH]3)C(=O)N12` [Example 10, 7-[4-(2-trifluoroacetylaminoethyl)imidazol-2-yl]amino-3-(1H-1,2,3-triazol-4-yl)thiomethylceph-3-em-4-carboxylic acid], for which the MIC in the assay on E. coli was 0.03 µg/mL (≈ 0.0579 µM); with Ent. cloacae it was 16 µg/mL (≈ 30.9 µM); with K. aerogenes, 0.06 µg/mL (≈ 0.116 µM); against Proteus mirabilis, 2 µg/mL (≈ 3.86 µM); against Ps. aeruginosa it was greater than 256 µg/mL; against Salmonella dublin, 0.016 µg/mL (≈ 0.0309 µM). Also, the MIC against Serratia marescens turned out to be 16 µg/mL (≈ 30.9 µM); against Staph. aureus, 64 µg/mL (≈ 123 µM); with Strep. pyogenes, 64 µg/mL (≈ 123 µM).

For the compound `Cn1nnnc1SCC1=C(C(=O)O)N2C(=O)[C@@H](Nc3nc(CCC#N)c[nH]3)[C@H]2SC1` [Example 16, 7-[4-(2-cyanoethyl)imidazol-2-yl]amino-3-(1-methyl-1H-tetrazol-5-yl)thiomethylceph-3-em-4-carboxylic acid], the minimal inhibitory concentration (MIC) is 0.016 µg/mL (≈ 0.0358 µM) against E. coli; 4 µg/mL (≈ 8.94 µM) with Ent. cloacae; 0.06 µg/mL (≈ 0.134 µM) against K. aerogenes; 1 µg/mL (≈ 2.23 µM) with Proteus mirabilis; greater than 128 µg/mL in the assay with Ps. aeruginosa; 0.008 µg/mL (≈ 0.0179 µM) against Salmonella dublin. Besides, the MIC stood at 2 µg/mL (≈ 4.47 µM) in the assay with Serratia marescens, 16 µg/mL (≈ 35.8 µM) in the assay on Staph. aureus and 8 µg/mL (≈ 17.9 µM) in the assay with Strep. pyogenes.

`O=C(O)C1=C(CSc2c[nH]nn2)CS[C@@H]2[C@H](Nc3nc(CCCNC(=S)NCC(F)(F)F)c[nH]3)C(=O)N12` [Example 80, 7-[4-(3-[3-(2,2,2-trifluoroethyl)thioureido]propyl)imidazol-2-yl]amino-3-(1H-1,2,3-triazol-4-yl)thiomethylceph-3-em-4-carboxylic acid]: the MIC in the assay on E. coli is 1 µg/mL (≈ 1.73 µM); in the assay on Ent. cloacae, 4 µg/mL (≈ 6.92 µM); in the assay on K. aerogenes, 2 µg/mL (≈ 3.46 µM); against Proteus mirabilis it was 4 µg/mL (≈ 6.92 µM); in the assay on Ps. aeruginosa it was greater than 128 µg/mL; against Salmonella dublin, 0.5 µg/mL (≈ 0.866 µM). The MIC is 64 µg/mL (≈ 111 µM) with Serratia marescens, 32 µg/mL (≈ 55.4 µM) against Staph. aureus and 32 µg/mL (≈ 55.4 µM) in the assay with Strep. pyogenes.
